From US8846704B2, “Thiopyrimidine-based compounds and uses thereof” (YM Biosciences Austraila Pty Ltd, priority 2007, dated 2014)

Legend:
Format in all cases: cell-based
[1] = target: T1, BaF3 TELJAK3 cells (Homo sapiens, UniProt P52333); test: Cellular screening, BaF3 TEL:JAK3 cells, Alamar Blue; conditions: 40 hr, read-out: BafT_J3 IC50_nM
T1 construct: fused on or other part: TEL (ETV6) N-terminal part, coding nucleotides 1-487, serves as the oligomerising partner; It is fused through a Sal I site to the JAK3 kinase domain and expressed from pTRE2 in BaF3 cells bearing pTET-off; P41212 (Transcription factor ETV6)
T1 sequence (P52333 1-1124): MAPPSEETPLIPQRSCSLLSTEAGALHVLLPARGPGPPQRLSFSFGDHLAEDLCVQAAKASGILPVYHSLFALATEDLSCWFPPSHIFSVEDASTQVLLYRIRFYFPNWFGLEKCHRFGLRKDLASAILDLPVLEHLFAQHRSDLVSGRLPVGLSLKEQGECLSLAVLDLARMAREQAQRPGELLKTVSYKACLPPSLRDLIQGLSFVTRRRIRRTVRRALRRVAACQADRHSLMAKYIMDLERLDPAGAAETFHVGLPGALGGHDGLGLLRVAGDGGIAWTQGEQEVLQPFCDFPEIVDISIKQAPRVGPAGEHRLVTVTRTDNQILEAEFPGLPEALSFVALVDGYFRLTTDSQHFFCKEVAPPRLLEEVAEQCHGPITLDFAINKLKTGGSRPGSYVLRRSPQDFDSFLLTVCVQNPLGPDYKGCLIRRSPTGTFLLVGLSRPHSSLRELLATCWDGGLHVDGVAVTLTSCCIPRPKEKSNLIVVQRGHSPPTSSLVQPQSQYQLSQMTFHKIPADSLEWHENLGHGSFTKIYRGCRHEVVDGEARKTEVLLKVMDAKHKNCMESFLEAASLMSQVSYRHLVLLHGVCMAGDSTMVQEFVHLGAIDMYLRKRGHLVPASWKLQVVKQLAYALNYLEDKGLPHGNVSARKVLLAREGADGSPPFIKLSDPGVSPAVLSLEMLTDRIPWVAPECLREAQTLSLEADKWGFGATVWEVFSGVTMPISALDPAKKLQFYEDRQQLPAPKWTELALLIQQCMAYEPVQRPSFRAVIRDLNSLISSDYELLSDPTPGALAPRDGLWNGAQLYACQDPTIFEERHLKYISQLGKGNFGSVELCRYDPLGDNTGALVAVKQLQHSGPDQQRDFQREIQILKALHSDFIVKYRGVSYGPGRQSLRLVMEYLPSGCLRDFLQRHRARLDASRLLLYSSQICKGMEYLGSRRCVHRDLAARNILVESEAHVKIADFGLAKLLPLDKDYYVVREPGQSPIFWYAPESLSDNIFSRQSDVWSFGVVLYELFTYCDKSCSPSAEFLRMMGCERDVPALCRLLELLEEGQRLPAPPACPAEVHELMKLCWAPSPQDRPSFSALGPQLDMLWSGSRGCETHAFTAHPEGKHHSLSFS
Description: (§1) For screening purposes, compounds were diluted in 96 well plates at a concentration of 20 μM. Plates were warmed at 37° C. for 30 minutes before the assay was performed.
The coding region encompassing nucleotides 1-487 of TEL was amplified by PCR using the oligonucleotides STEL (5′-GGAGGATCCTGATCTCTCTCGCTGTGAGAC-3′) [SEQ ID NO 14] and 3TEL (5′-AGGC GTCGACTTCTTCTTCATGGTTCTG-3′) [SEQ ID NO 15] and U937 mRNA as a template. A […] restriction site was incorporated into the STEL primer, and a Sal I restriction site was incorporated into the 3TEL primer. The regions encompassing the kinase domain of JAK2 (nucleotides 2994-3914; JAK2F 5′-ACGC GTCGACGGTGCCTTTGAAGACCGGGAT-3′ [SEQ ID NO 16]; JAK2R 5′-ATAGTTTAGCGGCCGCTCAGAATGAAGGTCATTT-3′) [SEQ ID NO 17] and JAK3 (nucleotides 2520-3469; JAK3F 5′-GAAGTCGACTATGCCTGCCAAGACCCCACGATCTT-3′) [SEQ ID NO 18] were generated by PCR using Taq DNA polymerase (Gibco/BRL) and […] as a template. A Sal I restriction site was incorporated into the forward primer of JAK2 and JAK3, a Not I site was incorporated into the JAK2 reverse primer and a Xba I site was added to the reverse primer of JAK3.
The TEL/Jak3 fusion was prepared by ligation of the JAK3 Sal I/Not I cleaved kinase domain PCR product with the BamH I/Sal I restriction digested TEL product, followed by ligation of the ligation product into the BamH I/Not I digested pTRE2, to give the TEL/Jak3 fusion plasmid pTELJAK3.
(§2) The growth factor dependant myelomonocytic cell line BaF3 bearing the pTET-off plasmid (Clontech) was transfected with either pTELJAK2 or pTELJAK3, and the transfected cells were selected for growth-factor independent cell growth. The BaF3 wild-type cells were cultured in DMEM containing 10% FCS, 10% WEHI 3B conditioned medium. The BaF3 TELJAK cells ([…]) were cultured in DMEM 10% Tet-System Approved FBS (without WEHI 3B conditioned medium).
(§3) Cell suspensions were prepared by harvesting cells from culture (the cells used in this test were in late log phase growth with high viability.) Cells were diluted in the appropriate growth medium, as described above, to 1.1× final concentration (from 50,000 cell/mL to 200,000 cell/mL, depending on cell line).
(§4) Compounds to be tested were added (10 μL, 10× final concentration) to a flat bottomed 96-well plate. The cellular suspension (90 μL per well) was then added, and the plate incubated for 40 hr at 37° C., 5% CO2. Alamar Blue 10 μL per well was added and the plates returned to the incubator for a further 4-6 hours. The plates were then read at 544 nm.

[2] = system: BaF3 wild-type cells; test: Cellular screening, BaF3 wild-type cells, Alamar Blue; conditions: Mus musculus, 40 hr, read-out: BAF3wt IC50_nM
Description: as §1, §2, §3, §4

[3] = system: CTLL2; test: Cellular screening, CTLL2 cells, Alamar Blue; conditions: Mus musculus, CTLL-2, read-out: CTLL2 IC50_nM
Description: as §3, §4

SMILES	GI50 [1]	IC50 [2]	IC50 [3]
C=CC(=O)NCc1cccc(Sc2ccnc(Nc3ccc(N4CCOCC4)cc3)n2)c1 [Compound 112, N-(3-(2-(4-morpholinophenylamino)pyrimidin-4-ylthio)benzyl)acrylamide]	< 20 µM	> 20 µM	< 20 µM
C=CC(=O)Nc1ccc(Sc2ccnc(Nc3ccc(N4CCOCC4)cc3)n2)cc1OC [Compound 123, N-(2-methoxy-4-(2-(4-morpholinophenylao)pyrimidin-4-ylthio)phenyl)acrylamide]	< 5 µM	< 5 µM	< 20 µM
CCOC(=O)/C=C/C(=O)Nc1ccc(Sc2nc(Nc3ccc(N4CCOCC4)cc3)ncc2C)cc1 [Compound 385, (E)-ethyl 4-(4-(5-methyl-2-(4-morpholinophenylao)pyrimidin-4-ylthio)phenylao)-4-oxobut-2-enoate]	< 1 µM	> 20 µM	< 5 µM
C=CC(=O)Nc1ccc(Sc2nc(Nc3ccc(N4CCOCC4)cc3)ncc2C)cc1C [Compound 259]	< 1 µM	< 20 µM	< 1 µM
C=CC(=O)Nc1ccc(Sc2nc(Nc3ccc(N4CCN(C)CC4)cc3)ncc2C)cc1 [Compound 239, N-(4-(5-methyl-2-(4-(4-methylpiperazin-1-yl)phenylao)pyrimidin-4-ylthio)phenyl)acrylamide]	< 1 µM	< 5 µM	< 1 µM
C=CC(=O)Nc1ccc(Nc2nccc(SC)n2)cc1 [Compound 13, N-(4-(4-(methylthio)pyrimidin-2-ylao)phenyl)acrylamide]	> 20 µM	> 20 µM	> 20 µM
C=CC(=O)Nc1cccc(Nc2nccc(Sc3ccccc3)n2)c1 [Compound 16, N-(3-(4-(phenylthio)pyrimidin-2-ylamino)phenyl)acrylamide]	< 1 µM	< 20 µM	< 5 µM
C=CC(=O)Nc1ccc(Sc2nc(Nc3ccc(N4CCOCC4)nc3)ncc2C)cc1 [Compound 254, N-(4-(5-methyl-2-(6-morpholinopyridin-3-ylao)pyrimidin-4-ylthio)phenyl)acrylamide]	< 1 µM	< 5 µM	< 1 µM
C=CC(=O)Nc1cccc(Sc2ccnc(Nc3ccc(N4CCOCC4)cc3)n2)c1 [Compound 23, N-(3-(2-(4-morpholinophenylamino)pyrimidin-4-ylthio)phenyl)acrylamide]	< 1 µM	< 20 µM	< 1 µM
C=CC(=O)Nc1ccc(Sc2nc(Nc3ccc(N4CCCC(O)C4)cc3)ncc2C)cc1 (stereo not drawn) [Compound 299, N-(4-(2-(4-(3-hydroxypiperidin-1-yl)phenylao)-5-methylpyrimidin-4-ylthio)phenyl)acrylamide]	< 1 µM	< 20 µM	< 1 µM
C=CC(=O)Nc1cccc(Nc2nccc(Sc3ccccn3)n2)c1 [Compound 2, N-(3-(4-(pyridin-2-ylthio)pyrimidin-2-ylamino)phenyl)acrylamide]	< 1 µM	< 5 µM	< 5 µM
C=CC(=O)Nc1ccc(Sc2nc(Nc3cccc(N4CCOCC4)c3)ncc2F)cc1 [Compound 267, N-(4-(5-fluoro-2-(3-morpholinophenylao)pyrimidin-4-ylthio)phenyl)acrylamide]	< 1 µM	< 5 µM	< 1 µM
C=CC(=O)N(C)c1ccc(Sc2nc(Nc3ccc(N4CCOCC4)cc3)ncc2C)cc1 [Compound 173, N-methyl-N-(4-(5-methyl-2-(4-morpholinophenylao)pyrimidin-4-ylthio)phenyl)acrylamide]	< 1 µM	< 20 µM	< 1 µM
Cc1cnc(Nc2ccc(N3CCOCC3)cc2)nc1Sc1ccc(N2C(=O)C=C(Br)C2=O)cc1 [Compound 382, 3-bromo-1-(4-(5-methyl-2-(4-morpholinophenylao)pyrimidin-4-ylthio)phenyl)-1H-pyrrole-2,5-dione]	< 20 µM	< 20 µM	< 20 µM
Cc1cnc(Nc2ccc(N3CCOCC3)cc2)nc1Sc1ccc(NC(=O)CSCC(=O)O)cc1 [Compound 230, 2-(2-(4-(5-methyl-2-(4-morpholinophenylao)pyrimidin-4-ylthio)phenylao)-2-oxoethylthio)acetic acid]	> 20 µM	> 20 µM	> 20 µM
C=CC(=O)Nc1ccc(Sc2nc(Nc3ccc(OC)c(NS(C)(=O)=O)c3)ncc2C)cc1 [Compound 293, N-(4-(2-(4-methoxy-3-(methylsulfonamido)phenylao)-5-methylpyrimidin-4-ylthio)phenyl)acrylamide]	< 1 µM	< 5 µM	< 1 µM
OCc1ccc(Sc2ccnc(Nc3ccc(N4CCOCC4)cc3)n2)cc1 [Compound 67, (4-(2-(4-morpholinophenylao)pyrimidin-4-ylthio)phenyl)methanol]	< 20 µM	< 20 µM	< 20 µM
N#CCNCc1cccc(Sc2ccnc(Nc3ccc(N4CCOCC4)cc3)n2)c1 [Compound 68, 2-(3-(2-(4-morpholinophenylao)pyrimidin-4-ylthio)benzylao)acetonitrile]	< 20 µM	> 20 µM	> 20 µM
NCc1cccc(Sc2ccnc(Nc3ccc(N4CCOCC4)cc3)n2)c1 [Compound 75, 4-(3-(aomethyl)phenylthio)-N-(4-morpholinophenyl)pyrimidin-2-ae]	< 20 µM	< 20 µM	< 20 µM
OCc1cccc(Sc2ccnc(Nc3ccc(N4CCOCC4)cc3)n2)c1 [Compound 62, (3-(2-(4-Morpholinophenylamino)pyrimidin-4-ylthio)phenyl)methanol]	< 20 µM	< 20 µM	< 20 µM
Cc1cnc(Nc2ccc(N3CCOCC3)cc2)nc1Sc1ccc(N)nc1 [Compound 262, 4-(6-aopyridin-3-ylthio)-5-methyl-N-(4-morpholinophenyl)pyrimidin-2-ae]	> 20 µM	> 20 µM	> 20 µM
